pIC50: −log10 of the molar value. Read-outs that look alike come from different tables or passages of the source.
Assays:
Carrageenan pleurisy = Carrageenan pleurisy assay (immunoinflammatory test); assay type: in vivo, rats; details: Rattus norvegicus; for ED50: 4 h, four hours after carrageenan, compound given one hour prior to carrageenan
Method: Assessment of immunoinflammatory or antiinflammatory activity is provided by the carrageenan pleurisy assay. Carrageenan pleurisy is induced as previously described by Carter, G. W., et al., in J. Pharm. Pharmacol 34:66-67, 1982. Carrageenan (310 ug/rat) is injected intrapleurally in a 0.25 ml volume of pyrogen-free saline. Four hours later, the rats are sacrificed and 2 ml of a phenol red solution (325 mg phenol red in 1 liter of 0.05 M phosphate buffered saline) are added to each pleural cavity. The contents of the cavities are mixed and transferred to glass test tubes. A 50 ul aliquot is removed from each tube and exudate cells are counted after red blood cells lysis (with Zapoglobin; Coulter Electronics, Hialeah FL) using a Coulter model ZBI counter. The remaining exudate-phenol red mixture is centrifuged at 750 xg for 15 minutes. One hundred µl of the supernatent fluid is diluted with 3.9 ml of phosphate buffer (0.072 M of tribasic sodium phosphate, Na3PO4·12H2O, in water) and the absorbance is measured at 560 nm.
Exudate volume is calculated as follows: [formula] where V1 = unknown volume of exudate, V2 K volume of dye added to cavity (2 ml), A1 = absorbance of exudate (assumed to be zero), A2 = absorbance of the phenol red solution, A3 = absorbance of exudate and phenol red solution.
Inhibition of exudate or formation is calculated by the following equations: [formula] [formula] ID50 values are calculated by Probit analysis.
The compound of Example 1 was administered one hour prior to carrageenan injection.

adenosine A1 receptor = molecular target: T1, adenosine A1 receptor (Rattus norvegicus, UniProt P25099); assay: Adenosine Receptor Binding - A1 Receptor Affinity (RBA1), [3H]-CHA displacement in brain membranes; parameters: species or system rats; details: 1.0 nM [3H]-CHA, rat whole brain membranes, one hour at 25°C; read-out: RBA-1
T1 sequence (P25099 1-326): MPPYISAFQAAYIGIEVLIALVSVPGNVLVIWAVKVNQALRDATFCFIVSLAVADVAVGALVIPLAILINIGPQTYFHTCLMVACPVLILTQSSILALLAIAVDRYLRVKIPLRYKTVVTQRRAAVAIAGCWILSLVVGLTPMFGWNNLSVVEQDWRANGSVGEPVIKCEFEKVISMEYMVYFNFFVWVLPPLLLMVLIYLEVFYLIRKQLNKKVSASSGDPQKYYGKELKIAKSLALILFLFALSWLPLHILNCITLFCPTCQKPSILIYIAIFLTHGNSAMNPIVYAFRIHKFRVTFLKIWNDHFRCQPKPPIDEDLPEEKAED
Method: Adenosine Receptor Binding - A1 Receptor Affinity (RBA1)
The supernatant was discarded, and the pellet was resuspended and centrifuged as before.
Incubation volume was 2 ml. Unbound [^3H]-CHA was separated by rapid filtration under reduced pressure through Whatman glass fiber (GF/B) filters.
Nonspecific binding was defined as the binding which occurred in the presence of 1 mM theophylline. […] Since the amount of radioligand bound was a small fraction of the total amount added, free radioligand was defined as the concentration (nM) of radioligand added to the incubation mixture.

male Swiss-Webster mice = assay: Antiwrithing (AW) test (analgesic test), acetic acid-induced writhing; assay type: in vivo; details: Mus musculus, sc; subcutaneous, 20 minutes before acetic acid (0.6%, 10 ml/kg) i.p.; dose suppressing writhing by 50%
Method: The antiwrithing (AW) test provides preliminary assessment of compounds with potential analgesic activity. The test is performed in male Swiss-Webster mice. Compounds are administered subcutaneously in aqueous 0.2% methylcellulose or other appropriate vehicles in volumes of 10 ml/kg. Dosages represent active moiety.
Acetic acid (0.6%, 10 ml/kg) is injected intraperitoneally 20 minutes after administration of the adenosine agonist. Writhing movements are counted for five minutes starting seven minutes after the acetic acid injection. Writhing is defined as abdominal constriction and stretching of the body and hind legs with concave arching of the back. Data are.expressed as ED50 values, where the ED50 is the dose necessary to suppress writhing by 50% relative to vehicle controls. ED50 values are calculated by nonlinear regression analysis.

adenosine A2 receptor = adenosine A2 receptor (Rattus norvegicus, UniProt P30543); assay: Adenosine Receptor Binding - A2 Receptor Affinity (RBA2), [3H]NECA displacement in striatal membranes; parameters: species or system rats; details: 4 nM [3H]NECA, 50 nM N6-cyclopentyladenosine, 60 minutes at 25°C, read-out: RBA-2
Sequence of adenosine A2 receptor (P30543 whole entry): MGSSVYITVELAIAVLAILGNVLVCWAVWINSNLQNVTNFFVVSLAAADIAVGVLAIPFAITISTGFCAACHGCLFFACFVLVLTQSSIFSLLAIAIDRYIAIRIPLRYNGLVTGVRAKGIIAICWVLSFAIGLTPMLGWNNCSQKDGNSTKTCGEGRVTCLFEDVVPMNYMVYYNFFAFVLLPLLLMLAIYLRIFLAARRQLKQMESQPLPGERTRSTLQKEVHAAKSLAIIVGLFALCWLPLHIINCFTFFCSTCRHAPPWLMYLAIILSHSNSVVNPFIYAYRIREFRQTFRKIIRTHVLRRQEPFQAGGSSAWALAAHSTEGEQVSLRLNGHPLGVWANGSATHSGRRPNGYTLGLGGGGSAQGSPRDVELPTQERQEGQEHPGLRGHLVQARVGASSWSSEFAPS
Method: Adenosine Receptor Binding - A2 Receptor Affinity (RBA2)
Brains from 200-500 g mixed sex Sprague-Dawley rats were purchased from Pel-Freez (Rogers, Arkansas). […] Brains were thawed and then kept on ice while the striata were dissected out. […] When needed, tissue was thawed at room temperature, disrupted in a Polytron, and kept on ice until used.
Test compounds were dissolved at 10 mM in dimethylsulfoxide on the same day as the experiment, and diluted in dimethylsulfoxide to 100x the final incubation concentration. […] [^3H]NECA was diluted to 40 nM in Tris. […] After all additions, the rack of tubes was vortexed, and the tubes were then incubated for 60 min at 25°C in a shaking water bath. The rack of tubes was vortexed an additional time halfway through the incubation.
Incubations were terminated by filtration through 2.4 cm GF/B filters under reduced pressure. Each tube was filtered as follows: the contents of the tube were poured onto the filter, 4 ml of ice-cold Tris were added to the tube and the contents poured onto the filter, and the filter was washed twice with 4 ml of ice-cold Tris. The filtration was complete in about twelve seconds. Filters were put in scintillation vials, 8 ml of Formula 947 scintillation fluid added, and the vials left overnight, shaken, and counted in a liquid scintillation counter at 40% efficiency.

Row | pIC50 (adenosine A1 receptor) | pIC50 (adenosine A2 receptor) | Compound | ED50 (Carrageenan pleurisy; exudate cells (WBC), read-out: ID50 (mg/kg) WBC) [mg/kg] | ED50 (Carrageenan pleurisy; exudate volume, read-out: ID50 (mg/kg) Exudate) [mg/kg] | inhibition at 0.1 mg/kg (Carrageenan pleurisy; read-out: % Inhibition Exudate) [%] | inhibition at 0.1 mg/kg (Carrageenan pleurisy; read-out: % Inhibition WBC) [%] | inhibition at 0.2 mg/kg (Carrageenan pleurisy; read-out: % Inhibition Exudate) [%] | inhibition at 0.2 mg/kg (Carrageenan pleurisy; read-out: % Inhibition WBC) [%] | inhibition at 0.4 mg/kg (Carrageenan pleurisy; read-out: % Inhibition Exudate) [%] | inhibition at 0.4 mg/kg (Carrageenan pleurisy; read-out: % Inhibition WBC) [%] | inhibition at 0.8 mg/kg (Carrageenan pleurisy; read-out: % Inhibition Exudate) [%] | inhibition at 0.8 mg/kg (Carrageenan pleurisy; read-out: % Inhibition WBC) [%] | ED50 (male Swiss-Webster mice) [mg/kg] | inhibition at 0.3 mg/kg (Carrageenan pleurisy; read-out: % Inhibition Exudate) [%] | inhibition at 0.3 mg/kg (Carrageenan pleurisy; read-out: % Inhibition WBC) [%] | inhibition at 1 mg/kg (Carrageenan pleurisy; read-out: % Inhibition Exudate) [%] | inhibition at 1 mg/kg (Carrageenan pleurisy; read-out: % Inhibition WBC) [%]
1 | 9.07 |  | OCC1OC(n2cnc3c(NC4CC5CCC4C5)ncnc32)C(O)C1O (stereo not drawn) [Example 1, N6-endo-Bicyclo[2.2.1]heptyl adenosine] | 0.12 | 0.15 | 49.3 | 74.1 | 60 | 70 | 81.3 | 90 | 42.7 | 68.4 | 0.03 |  |  |  | 
2 | 8.85 |  | OCC1OC(n2cnc3c(NC4CC5CCC4C5)ncnc32)C(O)C1O (stereo not drawn) [Example 2, N6-exo-Bicyclo[2.2.1]heptyladenosine] |  |  |  |  |  |  |  |  |  |  |  | 24.3 | 25.7 | 22.9 | 52.9
3 | 9.16 | 5.51 | OC1C(CCl)OC(n2cnc3c(NC4CC5CCC4C5)ncnc32)C1O (stereo not drawn) [Example 5, N6-2-endo-norbornyl-5'-chloro-5'-deoxy-adenosine] |  |  | 11.7 | 18.4 |  |  |  |  |  |  |  | 16.8 | 40 |  | 

From patent publication EP0181128A2, “N6-bicycloadenosines” (WARNER-LAMBERT COMPANY, priority 1984, dated 1986)
